Tests used:
[1] = Molar enthalpy of transition or fusion; conditions: Crystal; DSC
[2] = molar heat capacity at constant pressure; conditions: 101.33 kPa, Small sample (50 mg) DSC
[3] = Crystal; DTA

O=C(O)c1ccccc1 [benzoic acid]
Conditions	Molar enthalpy of transition or fusion [kcal/mol]	Normal melting temperature [°C]
[1]	4.02	–
[3]	–	121.80

[2]
Conditions	molar heat capacity at constant pressure [J/K/mol]
281.06 K, Crystal	137.39
287.01 K, Crystal	140.07
293.02 K, Crystal	142.88
299 K, Crystal	145.2
305.01 K, Crystal	147.4
311.02 K, Crystal	149.72
317 K, Crystal	152.16
323.03 K, Crystal	154.48
329.02 K, Crystal	156.93
335.02 K, Crystal	159.49
341.01 K, Crystal	161.93
347.02 K, Crystal	164.38
353 K, Crystal	166.7
359.01 K, Crystal	168.89
365.01 K, Crystal	171.21
369.32 K, Crystal	172.8
407.4 K, Liquid	230.44
409 K, Liquid	231.42
410.6 K, Liquid	232.15
413.2 K, Liquid	233.01
414.8 K, Liquid	233.5
416.5 K, Liquid	233.74
418 K, Liquid	233.98
419.6 K, Liquid	234.35
421.2 K, Liquid	234.72
422.8 K, Liquid	235.08
424.4 K, Liquid	235.45
426 K, Liquid	235.82
427.6 K, Liquid	236.06
429.2 K, Liquid	236.43
430.8 K, Liquid	236.79
432 K, Liquid	237.16

CCCCOC(=O)c1ccc(O)cc1 [butyl 4-hydroxybenzoate]
Conditions	Molar enthalpy of transition or fusion [kcal/mol]	Normal melting temperature [°C]
[1]	6.1	–
[3]	–	67.34

[2]
Conditions	molar heat capacity at constant pressure [J/K/mol]
291.02 K, Crystal	264.15
293.6 K, Crystal	266.09
296.12 K, Crystal	268.23
298.7 K, Crystal	270.36
301.32 K, Crystal	272.5
303.91 K, Crystal	274.64
306.52 K, Crystal	276.58
309.1 K, Crystal	278.72
311.71 K, Crystal	281.05
314.32 K, Crystal	283.18
316.9 K, Crystal	285.32
319.51 K, Crystal	287.65
322.12 K, Crystal	289.79
324.73 K, Crystal	292.31
328.33 K, Crystal	296.2
329.85 K, Crystal	298.33
330.99 K, Crystal	299.89
353.41 K, Liquid	386.9
355.11 K, Liquid	388.45
356.8 K, Liquid	389.04
358.41 K, Liquid	389.81
360.1 K, Liquid	390.4
361.82 K, Liquid	391.17
363.51 K, Liquid	391.76
365.21 K, Liquid	392.53
366.81 K, Liquid	392.92
368.41 K, Liquid	393.7
370.1 K, Liquid	394.09
371.82 K, Liquid	394.67
373.51 K, Liquid	395.25
375.2 K, Liquid	395.83
376.92 K, Liquid	396.42
378.61 K, Liquid	397
379.87 K, Liquid	397.39

Source: the NIST ThermoML archive (doi:10.1016/j.jct.2011.12.015)
